Measured values taken from ChEMBL document CHEMBL4831515 (J Med Chem, 2021).
pEC50, pIC50: −log10 of the molar value.

Columns and labels:
[1] = system: Human immunodeficiency virus 1; assay: Antiviral activity against wild type HIV1 harboring Y181C mutant infected in human MT4 cells assessed as reduction in virus-induced cytopathogenic effect by MTT assay; settings: Human immunodeficiency virus 1, MT4
[2] = system: Human immunodeficiency virus 1; assay: Antiviral activity against wild type HIV1 harboring Y188L mutant infected in human MT4 cells assessed as reduction in virus-induced cytopathogenic effect by MTT assay; settings: Human immunodeficiency virus 1, MT4
[3] = system: Human immunodeficiency virus 1; assay: Antiviral activity against HIV1 harboring F227L/V106A mutant infected in human MT4 cells assessed as reduction in virus-induced cytopathogenic effect by MTT assay; format: functional, organism-based; settings: Human immunodeficiency virus 1, MT4
[4] = system: Human immunodeficiency virus 1; assay: Antiviral activity against HIV1 3B infected in human MT4 cells assessed as reduction in virus-induced cytopathogenic effect by MTT assay; settings: Human immunodeficiency virus 1, 3B
[5] = Cytotoxicity against human MT4 cells assessed as reduction in cell viability by MTT assay
[6] = system: Human immunodeficiency virus 1; assay: Antiviral activity against HIV1 RES056 infected in human MT4 cells assessed as reduction in virus-induced cytopathogenic effect by MTT assay; settings: Human immunodeficiency virus 1, RES056, MT4
[7] = system: Human immunodeficiency virus 1; assay: Antiviral activity against HIV1 harboring K103N mutant infected in human MT4 cells assessed as reduction in virus-induced cytopathogenic effect by MTT assay; format: functional, organism-based; settings: Human immunodeficiency virus 1, MT4
[8] = in vitro; settings: human, MT4 cells
Description: Selectivity index, ratio of CC50 for human MT4 cells to EC50 for HIV1 harboring E138K mutant infected in human MT4 cells

[9] = system: Human immunodeficiency virus 1; assay: Antiviral activity against HIV1 harboring L100I mutant infected in human MT4 cells assessed as reduction in virus-induced cytopathogenic effect by MTT assay; settings: Human immunodeficiency virus 1, MT4
[10] = system: Human immunodeficiency virus 2; assay: Antiviral activity against wild type HIV2 ROD infected in human MT4 cells assessed as reduction in virus-induced cytopathogenic effect by MTT assay; settings: Human immunodeficiency virus 2, ROD
[11] = system: Human immunodeficiency virus 1; settings: Human immunodeficiency virus 1, MT4
[12] = molecular target: Human immunodeficiency virus type 1 reverse transcriptase (Human immunodeficiency virus 1, UniProt Q72547); assay: Inhibition of wild type HIV1 reverse transcriptase assessed as reduction in biotin-dUTP incorporation into […] incubated for 1 hrs by ELISA
[13] = Selectivity ratio of CC50 for human MT4 cells to IC50 for HIV1 RES056 infected in MT4 cells
[14] = in vitro; settings: human, liver microsomes
[15] = Stability in human liver microsomes assessed as compound remaining preincubated for 10 mins followed by phosphate buffer addition and incubated for 1 hr and subsequent addition of NADPH regenerating system and measured after 60 mins by LC-MS/MS analysis; format: ADME, Microsome; settings: time 190 min, read-out: Stability
[16] = Half life in human liver microsomes preincubated for 10 mins followed by phosphate buffer addition and incubated for 1 hr and subsequent addition of NADPH regenerating system and measured after 2 hrs by LC-MS/MS analysis

microsomal CLint at 2 h [14] | remaining at 1 h [15] | half-life at 2 h [16] | Structure (SMILES) | pEC50 [1] | pEC50 [2] | pEC50 [3] | pEC50 [4] | CC50 [5] | pEC50 [6] | pEC50 [7] | selectivity ratio [8] | pEC50 [9] | pEC50 [10] | pEC50 [11] | pIC50 [12] | selectivity ratio [13]
– | – | – | Cc1cc(/C=C/C#N)cc(C)c1Oc1nc(NC2CCN(Cc3ccc(S(N)(=O)=O)cc3)CC2)nc2c1CSCC2 | 7.65 | 7.43 | 7.79 | 7.97 | 15100 nM | 7.26 | 8.03 | 370 | 8.09 | 5.39 | 7.39 | 6.69 | 272
– | – | – | Cc1cc(C#N)cc(C)c1Oc1nc(Nc2ccc(C#N)cc2)nc2c1CSCC2 | 7.56 | 7.61 | 7.57 | 8.25 | 202000 nM | 6.83 | > 8.41 | 21400 | 8.03 | < 3.69 | 8.03 | 7.39 | 1360
– | – | – | Cc1cc(/C=C/C#N)cc(C)c1Oc1nc(Nc2ccc(C#N)c(F)c2)nc2c1CSCC2 | 7.49 | 7.27 | 7.13 | 7.80 | 54400 nM | 6.88 | 7.80 | 1320 | 8.08 | < 4.26 | 7.39 | 8.10 | 408
– | – | – | Cc1cc(C#N)cc(C)c1Oc1nc(NC2CCN(Cc3ccc(S(C)(=O)=O)cc3)CC2)nc2c1CSCC2 | 7.68 | 7.74 | 7.77 | 7.95 | 58000 nM | 6.90 | 8.18 | 3100 | 7.94 | 5.25 | 7.73 | 6.87 | 465
847 µL/min/mg | 0.2% | 1.6 min | Cc1cc(/C=C/C#N)cc(C)c1Oc1nc(NC2CCN(Cc3ccc(S(N)(=O)=O)cc3)CC2)nc2ccsc12 | – | – | – | – | – | – | – | – | – | – | – | – | –
– | – | – | Cc1cc(/C=C/C#N)cc(C)c1Oc1nc(Nc2ccc(C#N)nc2)nc2c1CSCC2 | 7.88 | 7.22 | 6.83 | 7.92 | 109000 nM | 7.09 | 8.39 | 8520 | 8.04 | < 3.96 | 7.89 | 7.49 | 1340
